Where “and” joins values, the source holds several entries; their conditions need not be identical. Identical values can stand only once.
What was measured:
[1] = tested on: 5α-reductase; test: 5α-reductase assay of Moore and Wilson, with or without preincubation of enzyme with inhibitor and NADPH; type: biochemical; conditions: for Picomol Testosterone reduced/mg protein in 45 min + SEM: assay 45 min: inhibitor 5 × 10^-8, testosterone 5 × 10^-8, NADPH 5 × 10^-4 M; for potency as inhibitor of the enzyme relative to progesterone: assay of Moore and Wilson; for manner of combination with / inactivation of the enzyme: in the presence of the co-factor NADPH; for Picomol Testosterone Reduced/mg protein in 45 min: assay 45 min: progesterone 5 × 10^-8, NADPH 5 × 10^-4, testosterone 5 × 10^-8
Source text: Employing the assay of R. J. Moore and J. D. Wilson [Methods in Enzymology, Vol. XXXVI, Academic Press, N.Y., Ed. W. O'Malley and G. Hardman, p.

[2] = tested on: 5α-reductase in cell-culture preparations of human prostate; conditions: cited from earlier work
[3] = tested on: 5α-reductase; conditions: well-known, prior art; cited from earlier work
[4] = tested on: sebum secretion; conditions: topical administration of a 0.5% solution in aqueous ethanol; cited from earlier work
[5] = tested on: 5α-reductase; conditions: preparations of human benign prostatic hypertrophic tissue; cited from earlier work

SMILES | Picomol Testosterone reduced/mg protein in 45 min + SEM ([1]; A: preincubation 15 min with inhibitor 5 × 10^-7 M and NADPH 6 × 10^-5 M) | Picomol Testosterone reduced/mg protein in 45 min + SEM ([1]; B: preincubation 15 min with inhibitor 0 and NADPH 6 × 10^-5 M) | Picomol Testosterone reduced/mg protein in 45 min + SEM ([1]; C: preincubation 15 min with inhibitor 0 and NADPH 0) | Picomol Testosterone reduced/mg protein in 45 min + SEM ([1]; D: preincubation 15 min with inhibitor 5 × 10^-7 M and NADPH 0) | Picomol Testosterone reduced/mg protein in 45 min + SEM ([1]; F: no preincubation) | potency as inhibitor of the enzyme relative to progesterone [1] | Ki ([1]; first phase, from plot of t1/2 against 1/[Inhibitor] (FIG. 2), read-out: Ki of reversible combination of enzyme and inhibitor) | manner of combination with / inactivation of the enzyme [1] | time course of inactivation of the enzyme ([1]; incubation of enzyme with NADPH and inhibitor (FIG. 1)) | enzyme activity lost ([1]; preincubation of enzyme with compound and NADPH, diluted tenfold, then assayed) | rate constant of irreversible combination (kcat) ([1]; second phase, enzyme-inhibitor complex rendered inactive) | effect on growth of the tissue [2] | inhibition of the enzyme in cell-culture preparations of human prostate [2] | type of inhibition of the enzyme [3] | males with acne showing an important decrease in sebum secretion [4] | conversion of testosterone to dihydrotestosterone [5] | Picomol Testosterone Reduced/mg protein in 45 min ([1]; 1: preincubation 15 min with progesterone 0 and NADPH 6 × 10^-5) | Picomol Testosterone Reduced/mg protein in 45 min ([1]; 2: preincubation 15 min with progesterone 5 × 10^-7 and NADPH 6 × 10^-5) | Picomol Testosterone Reduced/mg protein in 45 min ([1]; 4: no preincubation) | enzyme inactivation on preincubation ([1]; preincubation of enzyme with compound and NADPH)
C=C1C[C@@H]2[C@H](CC[C@@]3(C)[C@H]2CC[C@]3(OC(C)=O)C(C)=O)[C@@]2(C)CCC(=O)C=C12 [17α-acetoxy-6-methyleneprogesterone] | 0.71 ± 0.018 Picomol Testosterone reduced/m | 3.0 ± 0.26 Picomol Testosterone reduced/m | 2.83 ± 0.09 Picomol Testosterone reduced/m | 2.63 ± 0.18 Picomol Testosterone reduced/m | 3.14 ± 0.20 Picomol Testosterone reduced/m | equipotent with progesterone | 1250 nM | irreversible manner | pseudo first-order kinetics | 75% | 0.0048 s⁻¹ | – | – | – | – | – | – | – | – | –
C=C1C[C@H]2[C@@H]3CC[C@H](C(C)=O)[C@@]3(C)CC[C@@H]2[C@@]2(C)CCC(=O)C=C12 [6-methyleneprogesterone] | – | – | – | – | – | equipotent with progesterone | – | – | – | – | – | – | – | – | – | – | – | – | – | –
CC(=O)[C@H]1CC[C@H]2[C@@H]3CCC4=CC(=O)CC[C@]4(C)[C@H]3CC[C@]12C [progesterone] | – | – | – | – | – | – | – | competitive and reversible | – | – | – | inhibiting growth of the tissue | strongly inhibits the enzyme | reversible and competitive inhibitor | 45/53 | Inhibition of the conversion of testosterone to dihydrotestosterone | 3.91 Picomol Testosterone Reduced/m and 3.41 Picomol Testosterone Reduced/m | 3.91 Picomol Testosterone Reduced/m and 3.79 Picomol Testosterone Reduced/m | 3.66 Picomol Testosterone Reduced/m and 3.54 Picomol Testosterone Reduced/m | does not result in enzyme inactivation
